By IC50 is commonly meant the concentration at which inhibition is half-maximal. As usually defined, the EC50 is the concentration that produces a half-maximal response.

Consider 2 compounds from paper PMC10487708, “Chlorin E6-Curcumin-Mediated Photodynamic Therapy Promotes an Anti-Photoaging Effect in UVB-Irradiated Fibroblasts” (International Journal of Molecular Sciences, 2023).

Molecules are shown by their SMILES. Several values for one entry are separate records, joined by “and”; a condition that tells them apart may be missing. Equal entries are not always repeated. Where two headings read alike, the source gives them in different places.

For one data set, the system named is Hs68 cells. The experiment in a line: MTT cell viability of Hs68 cells with or without LED light. Type of data set: cell-based, human. To be noted: for IC50: Homo sapiens, light or radiation study, Hs68 cells. On the procedure:
Data were represented as mean ± SD from at least three independent experiments and analyzed by one-way ANOVA with Tukey’s post hoc test, * p < 0.01, compared with vehicle-treated control.
Hs68 and BALB/c 3T3 cell viability was measured using a 3-[4,5-dimethylthylthiazol-2-yl]-2,5 diphenyl tetrazolium bromide (MTT) assay. The cells were cultured in 24-well plates at a density of 3 × 10^4 cells per well or BALB/c 3T3 cells at a density of 1 × 10^4 cells per well. […] The Hs68 cells were then exposed to LED light (660 nm; 89 W/m^2; 20 J/cm^2) for 37 min 27 s and incubated for 3 h. […] The cells were washed and treated with MTT, after which the plates were incubated at 37 °C in the dark for 2 h. After the formation of formazan, 100 µL of DMSO was added, and the absorbance was measured at 570 nm using a microtiter plate reader (Thermo-scientific, Skanlt software 5.0, Waltham, MA, USA)

The nature of data set [1]: ABTS radical scavenging activity. The format is biochemical. On the procedure:
[…] in 2.5 mM potassium persulfate for more than 16 h to develop 7 mM 2,2′-azinobis-(3-ethylbenzothiazoline-6-sulfonic acid diammonium salt) (ABTS), and ethanol was diluted to obtain an absorbance of 0.3 at 620 nm. Each composite sample was diluted by concentration, and 100 μL of the sample was put into each well along with 50 μL each of ABTS reagent and solvent; reacted at room temperature for 10 min, and absorbance was measured at 620 nm. ABTS activity inhibition (%) = 100 − [test group-blank]/(control group-blank) × 100]

The nature of data set [2]: ORAC (oxygen radical absorbance capacity) assay. Type of data set: biochemical. To be noted: Trolox equivalent. The method, then: The ORAC assay is based on the scavenging of peroxyl radicals generated by 2,2′-azobis(2-methylpropioamidine) dihydrochloride (AAPH), which prevents the degradation of the fluorescein probe. The ORAC values were calculated as the area under the curve (AUC) and expressed as µM of Trolox equivalent (TE).

[3] abbreviates: dark, read-out: Dark Condition (EC50, μM) ABTS radical scavenging.

Consider `C=Cc1c(C)c2cc3nc(c(CC(=O)O)c4[nH]c(cc5nc(cc1[nH]2)C(C)=C5CC)c(C)c4C(=O)O)[C@@H](CCC(=O)O)[C@@H]3C` [Ce6, Chlorin e6], for which the IC50 was 0.615 µM in the data set with Hs68 cells (LED 660 nm 20 J/cm^2, MTT, read-out: Phototoxicity (IC50)) and no less than 1 µM in the data set on Hs68 cells (without LED irradiation, MTT, read-out: Dark Toxicity (IC50)). In the data set on Hs68 cells (dark, up to 1000 nM), the “cytotoxicity for Hs68 cells” value was “almost no cytotoxicity”. Further, the EC50 was ~19.8 µM and 19.8 µM in data set [1] (LED light, read-out: LED Condition (EC50, μM) ABTS radical scavenging); ~13.6 µM and 13.6 µM in data set [1] (setting [3]). Moreover, the “ORAC LED Condition (TE, μM)” value in data set [2] (LED 20 J/cm^2, 1 μM compound) came to 22.11 µM; in data set [2] (LED 20 J/cm^2, 10 μM compound) it was 53.85 µM. In addition, the figures for the “ORAC Dark Condition (TE, μM)” value in data set [2] (1 μM compound) and in data set [2] (10 μM compound) were 18.5 µM and 47.72 µM, respectively.

With `NCC(=O)CCC(=O)O` [5-ALA, 5-Aminolevulinic acid, reference compound], the EC50 in data set [1] (setting [3]) is 60.3 ± 9.51 µM. For the same compound, the “ORAC Dark Condition (TE, μM)” value in data set [2] (1 μM compound) and in data set [2] (10 μM compound) was “undetectable” each time.
